For one test, the target named is CK2 (Homo sapiens (Human), UniProt P68400). In words: Radiometric CK2 kinase assay. The format is biochemical. The conditions noted are these: for inhibition at 0.1 µM: compound at 0.10 μM.
The next test deals with MDA-MB231 cells. In words: Cell death, IncuCyte propidium iodide live-cell imaging. The format is cell-based, human. As to conditions: 48 hours, increasing concentrations.
The subject of a further test is 786-O and RPTEC cells. In words: Immunoblotting of CK2-dependent substrate phosphorylation and apoptosis markers. The format is cell-based. The conditions noted are these: 48 hours or 24 hours, increasing concentrations. Background: In western blotting, separated proteins are transferred to a membrane and probed.
For the next test, the system named is A549 and MDA-MB231 cells. Described as above. The format is cell-based, human. As to conditions: A549 24 hours, MDA-MB231 48 hours.
Where [1] appears, read: inhibition of CK2 activity, ATP 10 μM.

We go through 15 compounds from US20230278983A1, “INDOLE DERIVATIVES AND USES THEREOF FOR TREATING A CANCER” (Universite Claude Bernard Lyon 1, priority 2020, published 2023).

Each structure is given as a SMILES string. Read-outs that look alike come from different tables or passages of the source.

Sequence of CK2 (P68400 whole entry): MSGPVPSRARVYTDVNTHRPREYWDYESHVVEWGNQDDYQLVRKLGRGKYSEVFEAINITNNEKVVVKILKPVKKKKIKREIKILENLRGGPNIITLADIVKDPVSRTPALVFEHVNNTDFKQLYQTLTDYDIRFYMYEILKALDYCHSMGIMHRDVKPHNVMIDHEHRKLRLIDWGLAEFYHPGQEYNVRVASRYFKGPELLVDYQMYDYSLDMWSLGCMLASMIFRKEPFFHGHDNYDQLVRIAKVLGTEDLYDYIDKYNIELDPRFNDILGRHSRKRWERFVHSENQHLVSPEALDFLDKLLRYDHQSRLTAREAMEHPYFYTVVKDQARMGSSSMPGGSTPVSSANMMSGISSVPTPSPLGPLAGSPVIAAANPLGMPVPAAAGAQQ

As to `CCOC(=O)c1[nH]c2ccc(F)cc2c1-c1cn(CC2CCN(CCNS(=O)(=O)c3ccc(CC)cc3)CC2)nn1` [AB526, Ethyl 3-(1-((1-(2-((4-ethylphenyl)sulfonamido)ethyl)piperidin-4-yl)methyl)-1H-1,2,3-triazol-4-yl)-5-fluoro-1H-indole-2-carboxylate], it took 300 nM to reach half-maximal inhibition at CK2 (IC50). Further, at CK2 (Lineweaver-Burk analysis (n=2)), the “Mechanism of CK2 inhibition with respect to ATP” value was “non-ATP competitive mechanism of CK2 inhibition” and the “Mechanism of inhibition towards CK2β” value was “mixed competitive inhibition towards CK2β”. Further, in the test with MDA-MB231 cells, the “Sensitivity to compound-mediated cell death, MDA-MB231 versus normal MCF10A” value is given as “much more sensitive”. For the same compound, the “CK2-dependent substrate phosphorylation and apoptosis (western blot)” value with 786-O and RPTEC cells was “inhibit CK2-dependent substrate phosphorylation in cells and induce apoptosis”. For the same compound, in the test with A549 and MDA-MB231 cells, the “CK2-dependent substrate phosphorylation and apoptosis (western blot)” value was “inhibit CK2-dependent substrate phosphorylation and induce apoptosis in different cancer cell lines”.
Regarding `CC(=O)c1[nH]c2ccc(F)cc2c1-c1cn(CC2CCN(CCNS(=O)(=O)c3ccc(-c4ccccc4C(F)(F)F)cc3)CC2)nn1` [AB1394, N-(2-(4-((4-(2-acetyl-5-fluoro-1H-indol-3-yl)-1H-1,2,3-triazol-1-yl)methyl)piperidin-1-yl)ethyl)-2′-(trifluoromethyl)-[1,1′-biphenyl]-4-sulfonamide], on CK2, half-maximal inhibition (IC50) was put at 23 nM.
Consider `CC(C)COC(=O)c1[nH]c2ccc(F)cc2c1-c1cn(CC2CCN(CCNS(=O)(=O)c3ccc(-c4c(O)cccc4F)cc3)CC2)nn1` [AB1402, isobutyl 5-fluoro-3-(1-((1-(2-((2′-fluoro-6′-hydroxy-[1,1′-biphenyl])-4-sulfonamido)ethyl)piperidin-4-yl)methyl)-1H-1,2,3-triazol-4-yl)-1H-indole-2-carboxylate], for which it took 45 nM to reach half-maximal inhibition at CK2 (setting [1]) (IC50).
As to `CC(=O)c1[nH]c2ccc(F)cc2c1-c1cn(C[C@H]2CCCN(CCNS(=O)(=O)c3ccc(CC(C)C)cc3)C2)nn1` [AB1403], at CK2 (ATP 10 μM), the inhibition (as a rule, the change of the read-out against control, counted positive when it falls) at 0.1 µM came to 9%.
As for `CC(=O)c1[nH]c2ccc(F)cc2c1-c1cn(CC2CN(CCNS(=O)(=O)c3ccc(CC(C)C)cc3)C2)nn1` [AB1404, N-(2-(3-((4-(2-acetyl-5-fluoro-1H-indol-3-yl)-1H-1,2,3-triazol-1-yl)methyl)azetidin-1-yl)ethyl)-4-isobutylbenzenesulfonamide], testing at 0.1 µM against CK2 (ATP 10 μM) gave an inhibition of 20%.
On CK2 (ATP 10 μM), `CC(C)Cc1ccc(S(=O)(=O)NCCN2CCC(Cn3cc(-c4c(CO)[nH]c5ccc(F)cc45)nn3)CC2)cc1` [AB1405, N-(2-(4-((4-(5-fluoro-2-(hydroxymethyl)-1H-indol-3-yl)-1H-1,2,3-triazol-1-yl)methyl)piperidin-1-yl)ethyl)-4-isobutylbenzenesulfonamide] returned an inhibition at 0.1 µM of 11%.
Same read-out and setting: the figure for `O=S(=O)(NCCN1CCC(Cn2cc(-c3c(CO)[nH]c4ccc(F)cc34)nn2)CC1)c1ccc(-c2c(O)cccc2F)cc1` [AB1406, 2′-fluoro-N-(2-(4-((4-(5-fluoro-2-(hydroxymethyl)-1H-indol-3-yl)-1H-1,2,3-triazol-1-yl)methyl)piperidin-1-yl)ethyl)-6′-hydroxy-[1,1′-biphenyl]-4-sulfonamide] is 29%.
Take `CCC(=O)c1[nH]c2ccc(F)cc2c1-c1cn(CC2CCN(CCNS(=O)(=O)c3ccc(-c4c(O)cccc4F)cc3)CC2)nn1` [AB1415, 2′-fluoro-N-(2-(4-((4-(5-fluoro-2-propionyl-1H-indol-3-yl)-1H-1,2,3-triazol-1-yl)methyl)piperidin-1-yl)ethyl)-6′-hydroxy-[1,1′-biphenyl]-4-sulfonamide]: at CK2, the IC50 (in general, the point on the concentration scale where inhibition reaches its midpoint) was found to be 50 nM.
In the case of `CCC(=O)c1[nH]c2ccc(F)cc2c1-c1cn(CC2CCN(CCNS(=O)(=O)c3ccc(-c4c(OC)cccc4OC)cc3)CC2)nn1` [AB1416, N-(2-(4-((4-(5-fluoro-2-propionyl-1H-indol-3-yl)-1H-1,2,3-triazol-1-yl)methyl)piperidin-1-yl)ethyl)-2′,6′-dimethoxy-[1,1′-biphenyl]-4-sulfonamide], at CK2, 100 nM corresponded to half-maximal inhibition (IC50). Compared with the last compound, the IC50 is about 2-fold higher.
In turn, `CCC(=O)c1[nH]c2ccc(F)cc2c1-c1cn(CC2CCN(CCNS(=O)(=O)Cc3ccc(C(F)(F)F)cc3)CC2)nn1` [AB1417, N-(2-(4-((4-(5-fluoro-2-propionyl-1H-indol-3-yl)-1H-1,2,3-triazol-1-yl)methyl)piperidin-1-yl)ethyl)-1-(4-(trifluoromethyl)phenyl)methanesulfonamide] showed an IC50 against CK2 (setting [1]) of 120 nM.
Compound `CC(=O)c1[nH]c2ccc(F)cc2c1-c1cn(CC2CCN(CCNS(=O)(=O)c3ccc(-c4ccccc4O)cc3)CC2)nn1` [AB1450, N-(2-(4-((4-(2-acetyl-5-fluoro-1H-indol-3-yl)-1H-1,2,3-triazol-1-yl)methyl)piperidin-1-yl)ethyl)-2′-hydroxy-[1,1′-biphenyl]-4-sulfonamide] showed an IC50 at CK2 of 49 nM.
The same measure, in the same setting: the figure for `CC(=O)c1[nH]c2ccc(F)cc2c1-c1cn(CC2CCN(CCNS(=O)(=O)c3ccc(-c4c(F)cccc4C(F)(F)F)cc3)CC2)nn1` [AB1451, N-(2-(4-((4-(2-acetyl-5-fluoro-1H-indol-3-yl)-1H-1,2,3-triazol-1-yl)methyl)piperidin-1-yl)ethyl)-2′-fluoro-6′-(trifluoromethyl)-[1,1′-biphenyl]-4-sulfonamide] is 45 nM.
Turning to `CC(=O)c1[nH]c2ccc(F)cc2c1-c1cn(CC2CCN(CCNS(=O)(=O)c3ccc(-c4c(C)cccc4C#N)cc3)CC2)nn1` [AB1452, N-(2-(4-((4-(2-acetyl-5-fluoro-1H-indol-3-yl)-1H-1,2,3-triazol-1-yl)methyl)piperidin-1-yl)ethyl)-2′-cyano-6′-methyl-[1,1′-biphenyl]-4-sulfonamide], the inhibition at 0.1 µM against CK2 (ATP 10 μM) was 36%.
On the same count and under the same terms, the figure for `CC(=O)c1[nH]c2ccc(F)cc2c1-c1cn(CC2CCN(CCNS(=O)(=O)c3ccc(-c4ccc(F)cc4Cl)cc3)CC2)nn1` [AB1453, N-(2-(4-((4-(2-acetyl-5-fluoro-1H-indol-3-yl)-1H-1,2,3-triazol-1-yl)methyl)piperidin-1-yl)ethyl)-2′-chloro-4′-fluoro-[1,1′-biphenyl]-4-sulfonamide] is 40%.
Consider `COc1cccc(OC)c1-c1ccc(S(=O)(=O)NCCN2CCC(Cn3cc(-c4c(C(C)=O)[nH]c5ccc(F)cc45)nn3)CC2)cc1F` [AB1454, N-(2-(4-((4-(2-acetyl-5-fluoro-1H-indol-3-yl)-1H-1,2,3-triazol-1-yl)methyl)piperidin-1-yl)ethyl)-2-fluoro-2′,6′-dimethoxy-[1,1′-biphenyl]-4-sulfonamide], for which the IC50 against CK2 amounted to 11 nM. In other words, the double-digit nanomolar range.
